Target: T1, M4 muscarinic receptor (Homo sapiens, UniProt P08173)
T1 sequence (P08173 1-479): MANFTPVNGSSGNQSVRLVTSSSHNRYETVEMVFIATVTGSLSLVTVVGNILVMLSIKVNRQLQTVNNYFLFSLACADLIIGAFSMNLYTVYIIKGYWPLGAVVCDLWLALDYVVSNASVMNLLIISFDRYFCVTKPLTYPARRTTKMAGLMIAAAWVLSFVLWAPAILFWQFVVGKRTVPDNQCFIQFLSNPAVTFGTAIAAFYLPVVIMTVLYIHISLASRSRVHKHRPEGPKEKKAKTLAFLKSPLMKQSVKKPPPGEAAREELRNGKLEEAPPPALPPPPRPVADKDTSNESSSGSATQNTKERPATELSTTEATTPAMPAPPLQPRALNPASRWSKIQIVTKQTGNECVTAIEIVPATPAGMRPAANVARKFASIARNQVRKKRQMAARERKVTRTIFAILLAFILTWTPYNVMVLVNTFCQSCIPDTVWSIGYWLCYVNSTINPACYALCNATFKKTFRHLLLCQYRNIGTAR
Assay: accumulation of IPX, M4 CHO cells (M4Gq)
Assay type: cell-based
Design: host or cells: CHO cells, stably transfected
Settings: for RAi / E′MAX / τ / Δlog(τ/KA): M4Gq (↑IPX); for RAi: Table 8, relative to carbachol; for E′MAX / τ: Table 8; for Δlog(τ/KA): Table 8, to carbachol
Experimental: To determine level of cAMP, cells in suspension were pre-incubated for 1 h with 0.4 μM [^3H]adenine, washed, and incubated for 10 min in the presence of isobutylmethylxanthine and 10 μM forskolin. […] Incubation was ended by addition of 0.2 ml of 2.5 M HCl to the samples. Samples were applied to alumina columns (1.5 g of alumina per column), washed with 2 ml ammonium acetate (pH=7.0) and eluted from columns with 4 ml ammonium acetate and measured by liquid scintillation spectrometry. […] The incubation was stopped by addition of 0.5 ml of chloroform methanol HCl mixture (2:1:0.1). After separation of water and organic phases, 0.6 ml of water phase was applied to Dowex columns (1.5 g of Dowex per column), washed by 20 ml of 60 mM ammonium formate/5 mM sodium borate buffer and eluted from columns with 4 ml of 1M ammonium formate/0.1 formic acid buffer and measured by liquid scintillation spectrometry.
Measurements of the production of cAMP and inositol phosphates: Levels of second messengers cAMP and inositol phosphates were determined in radiochemical chromatography assays as described previously. To determine level of cAMP, cells in suspension were pre-incubated for 1 h with 0.4 μM [^3H]adenine, washed, and incubated for 10 min in the presence of isobutylmethylxanthine and 10 μM forskolin. […] Incubation was ended by addition of 0.2 ml of 2.5 M HCl to the samples. Samples were applied to alumina columns (1.5 g of alumina per column), washed with 2 ml ammonium acetate (pH=7.0) and eluted from columns with 4 ml ammonium acetate and measured by liquid scintillation spectrometry. […] For this purpose, new CHO cell lines stably expressing promiscuous G15 G-protein and M2 or M4 receptor were generated by transfection with pCMV/hygro vector and hygromycin selection. To determine the rate of formation of inositol phosphates IPX, suspended cells were pre-incubated with 0.1 μM [^3H]myo-inositol for 60 min, washed, and incubated with 10 mM LiCl for 15 min. […] The incubation was stopped by addition of 0.5 ml of chloroform methanol HCl mixture (2:1:0.1). After separation of water and organic phases, 0.6 ml of water phase was applied to Dowex columns (1.5 g of Dowex per column), washed by 20 ml of 60 mM ammonium formate/5 mM sodium borate buffer and eluted from columns with 4 ml of 1M ammonium formate/0.1 formic acid buffer and measured by liquid scintillation spectrometry.
For bi-phasic response, curves were inhibitory and stimulatory phase were fitted separately. Operational Model of Functional Agonism
[formula] where y is functional response at concentration of tested compound x, EMAX is maximal response of the system, KA is equilibrium dissociation constant and nH is slope factor. Eq. 5 was fitted to data from functional experiments. Eq. 5 was fitted to data by the two-step procedure described earlier. […] In the second step, Eq. 5 with EMAX fixed to the value determined in the first step was fitted to individual experimental data sets. Relative Intrinsic Activity

C1=CCN(Cc2cccs2)CC1.Cl [Compound 6A, 1-[(thiophen-2-yl)methyl]-1,2,3,6-tetrahydropyridin-1-ium chloride]
RAi: 0

C[N+](C)(C)CCOC(N)=O [carbachol, reference compound]
E′MAX: 1.78 ± 0.05 fold over basal
τ: 0.24 ± 0.03
Δlog(τ/KA): 0

C[N+]1(Cc2cccs2)CC=CCC1.[I-] (centres unmarked) [Compound 7A, 1-methyl-1-[(thiophen-2-yl)methyl]-1,2,3,6-tetrahydropyridin-1-ium iodide]
RAi: 0

O=C1CCCN1CC#CCN1CCCC1 [oxotremorine, reference compound]
EC50: 162 nM
Kd: 200 nM
E′MAX: 1.58 ± 0.04 fold over basal
τ: 0.17 ± 0.02
RAi: 4.69 ± 0.17
Δlog(τ/KA): −0.67 ± 0.06

Reference: US11591323B2, “Muscarinic agonists as non-steroidal and non-opioid analgesics and methods of use thereof” (Barry University, priority 2019, dated 2023)
